Legend:
Format in all cases: biochemical
[1] = target: T1, surface displayed CK2α + CK2β (CK2α containing human CK2 holoenzyme) (Homo sapiens, UniProt P68400); test: whole-cell CK2 selectivity assay, holoenzyme surface displayed on E. coli; details: 600 µM ATP, 100 µM substrate peptide
T1 construct: surface-display (autodisplay) carrier protein; made in house; host or cells: Escherichia coli BL21 (DE3), enzyme left on the cell surface
Text: We recently reported a whole cell CK2 activity assay, which can be used for testing the selectivity of compounds towards CK2α and CK2α’ [47]. It is based on the surface display of the human CK2 subunits, either α or α’ together with β on E. coli, were they are able to form a functional tetrameric holoenzymes, either ααββ or α’α’ββ, depending on which α isoform has been expressed. This technique was used to investigate whether 4a or 5 have preference to one of the two catalytic isoforms of CK2.
For this purpose, their IC50 were determined following the protocol of the recently described whole-cell CK2 selectivity assay. In summary, 78 µL of a bacterial suspension of Escherichia coli BL21 (DE3) either surface displaying CK2α + CK2β or CK2α’ + CK2β in kinase buffer (50 mM Tris/HCl, pH 8.5, 100 mM NaCl, 10 mM MgCl2 and 1 mM DTT) were supplemented with 2 µL of the test compound dissolved in DMSO and incubated at 37 °C and 400 rpm for 10 min. CK2 reactions were started by the addition of 120 µL of assay buffer (25 mM Tris/HCl, pH 7.5, 150 mM NaCl, 5 mM MgCl2, 1 mM DTT, 167 µM substrate peptide […] and 1 mM ATP) leading to a total reaction volume of 200 µL with final concentrations of 100 µM for the substrate peptide and 600 µM for ATP. […] After the samples were incubated for 120 min at 37 °C and 400 rpm, the CK2 presenting bacteria were removed by centrifugation (3850× g, 5 min, 4 °C). The obtained supernatants were transferred to the wells of a 96 well-microplate and finally supplemented with EDTA to a concentration of 12.5 mM to definitely stop the enzymatic reactions. The samples were then subjected to a Beckman Coulter pa800 plus (Krefeld, Germany) CE system and analyzed for phosphorylation of the substrate peptide. Samples containing pure DMSO served as controls for 0% inhibition and samples additionally lacking ATP served as controls for 100% inhibition. […] IC50 values were calculated from the resulting dose-response curves.
CK2α’ + CK2β (right column).
Mean values ± standard errors of
the means (SEM) are shown. […]

[2] = system: panel of 61 human protein kinases; test: kinase selectivity profile, whole panel; details: 10 µM inhibitor, 10 µM ATP
Text: (§1) This demands further investigation.

[3] = target: T2, Aurora A (Homo sapiens, UniProt O14965); test: kinase selectivity profile; details: 10 µM inhibitor, 10 µM ATP
T2 construct: purchased Reaction Biology Corp
T2 sequence (O14965 1-403): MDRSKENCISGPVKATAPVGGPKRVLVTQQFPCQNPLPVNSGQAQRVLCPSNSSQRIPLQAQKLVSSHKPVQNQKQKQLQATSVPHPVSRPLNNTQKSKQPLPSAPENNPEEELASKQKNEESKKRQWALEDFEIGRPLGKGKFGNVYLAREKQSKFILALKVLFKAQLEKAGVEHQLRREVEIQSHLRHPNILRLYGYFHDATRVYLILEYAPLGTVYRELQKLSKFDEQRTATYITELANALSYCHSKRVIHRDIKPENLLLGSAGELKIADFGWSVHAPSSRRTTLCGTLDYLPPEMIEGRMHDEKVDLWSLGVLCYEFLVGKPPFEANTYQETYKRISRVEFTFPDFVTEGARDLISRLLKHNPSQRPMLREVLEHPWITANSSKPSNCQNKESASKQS
Text: as §1

[4] = target: T3, FLT3 (D835Y) (Homo sapiens, UniProt P36888, D835Y); test: kinase selectivity profile; details: 10 µM inhibitor, 10 µM ATP
T3 construct: purchased Reaction Biology Corp
Text: as §1

[5] = target: T4, CAMKK2 (Homo sapiens, UniProt Q96RR4); test: kinase selectivity profile; details: 10 µM inhibitor, 10 µM ATP
T4 construct: purchased Reaction Biology Corp
T4 sequence (Q96RR4 whole entry): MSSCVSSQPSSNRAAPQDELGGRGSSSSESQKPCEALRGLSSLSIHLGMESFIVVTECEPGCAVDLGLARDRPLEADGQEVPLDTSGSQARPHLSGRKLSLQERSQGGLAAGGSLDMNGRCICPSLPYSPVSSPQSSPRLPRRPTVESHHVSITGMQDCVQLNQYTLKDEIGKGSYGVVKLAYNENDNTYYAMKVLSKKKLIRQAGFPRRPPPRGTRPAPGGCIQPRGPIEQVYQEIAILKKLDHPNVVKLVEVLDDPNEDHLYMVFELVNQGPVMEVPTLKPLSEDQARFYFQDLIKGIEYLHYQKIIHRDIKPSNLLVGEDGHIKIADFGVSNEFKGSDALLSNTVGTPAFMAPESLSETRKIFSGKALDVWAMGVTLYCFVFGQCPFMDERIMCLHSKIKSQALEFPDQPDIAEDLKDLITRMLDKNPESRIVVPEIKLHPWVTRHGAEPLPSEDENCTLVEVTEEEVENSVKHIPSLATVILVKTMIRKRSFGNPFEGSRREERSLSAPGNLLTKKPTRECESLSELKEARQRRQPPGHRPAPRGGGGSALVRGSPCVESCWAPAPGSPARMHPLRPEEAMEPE
Text: as §1

[6] = target: T5, FLT3 (Homo sapiens, UniProt P36888); test: kinase selectivity profile; details: 10 µM inhibitor, 10 µM ATP
T5 construct: purchased Reaction Biology Corp
Text: as §1

[7] = target: T6, CK2α (Homo sapiens, UniProt P68400); test: kinase selectivity profile (Reaction Biology Corp.); details: 10 µM inhibitor, 10 µM ATP, relative to control without inhibitor; read-out: residual activity
T6 construct: purchased Reaction Biology Corp
T6 sequence (P68400 whole entry): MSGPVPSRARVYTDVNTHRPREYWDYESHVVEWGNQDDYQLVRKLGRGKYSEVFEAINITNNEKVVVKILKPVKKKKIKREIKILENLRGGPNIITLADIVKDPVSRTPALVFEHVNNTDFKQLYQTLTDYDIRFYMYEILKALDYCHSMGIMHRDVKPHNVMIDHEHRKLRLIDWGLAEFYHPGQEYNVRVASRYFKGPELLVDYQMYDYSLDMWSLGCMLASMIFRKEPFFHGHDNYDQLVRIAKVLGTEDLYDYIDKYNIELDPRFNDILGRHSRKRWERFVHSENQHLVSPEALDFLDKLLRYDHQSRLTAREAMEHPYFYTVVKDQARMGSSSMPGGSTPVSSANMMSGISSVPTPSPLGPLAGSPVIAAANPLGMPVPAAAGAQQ
Text: as §1

[8] = target: T7, CK2α’ (Homo sapiens, UniProt P19784); test: as above; details: 10 µM inhibitor, 10 µM ATP, relative to control without inhibitor; read-out: residual activity
T7 construct: purchased Reaction Biology Corp
T7 sequence (P19784 whole entry): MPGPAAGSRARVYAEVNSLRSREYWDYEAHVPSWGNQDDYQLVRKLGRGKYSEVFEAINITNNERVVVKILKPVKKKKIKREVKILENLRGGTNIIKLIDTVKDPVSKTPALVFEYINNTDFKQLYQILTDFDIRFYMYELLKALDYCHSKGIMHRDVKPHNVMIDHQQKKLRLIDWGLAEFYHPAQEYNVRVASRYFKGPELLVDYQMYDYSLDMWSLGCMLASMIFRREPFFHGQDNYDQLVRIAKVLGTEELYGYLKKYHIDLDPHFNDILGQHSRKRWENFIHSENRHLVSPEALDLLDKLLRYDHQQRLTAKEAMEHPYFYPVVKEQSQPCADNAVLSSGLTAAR
Text: as §1

T1 sequence (P68400 whole entry): as the sequence (P68400 whole entry) above
T1 sequence (P67870 whole entry partner): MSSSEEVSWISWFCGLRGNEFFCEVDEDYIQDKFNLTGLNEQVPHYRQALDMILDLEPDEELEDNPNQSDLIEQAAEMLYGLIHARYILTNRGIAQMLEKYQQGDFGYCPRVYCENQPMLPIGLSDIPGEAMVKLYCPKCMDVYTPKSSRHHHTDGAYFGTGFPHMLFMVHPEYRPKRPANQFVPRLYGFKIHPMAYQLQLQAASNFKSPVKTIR

Row | IC50 [1] | number of kinases out of the 61 kinases inhibited to more than 70% [2] | kinase inhibited more than 70% at 10 µM concentration [3] | kinase inhibited more than 70% at 10 µM concentration [4] | kinase inhibited more than 70% at 10 µM concentration [5] | kinase inhibited more than 70% at 10 µM concentration [6] | remaining activity at 10 µM [7] | remaining activity at 10 µM [8] | Compound
1 | 877 nM |  |  |  |  |  |  |  | Cc1ccc(NC=C2C(=O)CCc3c2oc2c(Cl)c(Cl)c(O)cc32)cc1 [4b, 6,7-dichloro-1,4-dihydro-8-hydroxy-4-[(4-methylphenylamino)methylene]dibenzo[b,d]furan-3(2H)-one]
2 | 98 nM | 11 | Aurora A | FLT3 (D835Y) | CAMKK2 | FLT3 | < 2% | < 1% | COc1ccc(/N=C/c2c(O)ccc3c2oc2cc(Cl)c(O)c(Cl)c23)cc1 [compound 5, (E)-1,3-dichloro-6-[(4-methoxyphenylimino)methyl]dibenzo[b,d]furan-2,7-diol]
3 | 62 nM | 6 | Aurora A | FLT3 (D835Y) | CAMKK2 | FLT3 | < 2% | < 1% | COc1ccc(N/C=C2\C(=O)CCc3c2oc2cc(Cl)c(O)c(Cl)c32)cc1 [4a, 7,9-dichloro-1,2-dihydro-8-hydroxy-4-[(4-methoxyphenylamino)methylene]dibenzo[b,d]furan-3(2H)-one]

Source: PMC5874719, “A π-Halogen Bond of Dibenzofuranones with the Gatekeeper Phe113 in Human Protein Kinase CK2 Leads to Potent Tight Binding Inhibitors” (Pharmaceuticals, 2018)
